Reference: patent US20260356819A1, “OXOISOINDOLINYL-SUBSTITUTED […] DERIVATIVE AND USE THEREOF” (GLUETACS THERAPEUTICS (SHANGHAI) CO., LTD., priority 2023, published 2026)

Assays:
IKZF2 = molecular target: T1, IKZF2 (Homo sapiens, UniProt Q96SW2+Q9UKS7); assay: Western blot degradation of IKZF2 in hPBMCs (24 h); type: cell-based; conditions: compounds at 50 nM and 500 nM
T1 construct: The supernatant was aspirated as the extracted total cell protein; endogenous in cells; host or cells: human peripheral blood mononuclear cells (hPBMCs)
Procedure, shortened: (§1)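 Western blot densitometry after 24 h treatment of human PBMCs (1×10^6 cells/mL) with 50 nM or 500 nM compound. Remaining target (%) = band intensity over internal-control band, normalized to DMSO; degradation = 1 − remaining; DC50 is the concentration giving half the DMSO band signal.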

GSPT1 = molecular target: T2, GSPT1 (Homo sapiens, UniProt P15170+Q96SW2); assay: Western blot degradation of GSPT1 in hPBMCs (24 h); type: cell-based; conditions: compounds at 50 nM and 500 nM
T2 construct: The supernatant was aspirated as the extracted total cell protein; endogenous in cells; host or cells: human peripheral blood mononuclear cells (hPBMCs)
Procedure, shortened: as §1

MV-4-11 cells = assay: Inhibition of proliferation of myeloid monocytic leukemia cells MV-4-11 (cell viability assay, 96 h); type: cell-based, human; conditions: read-out: inhibitory activity (IC50) against tumor cells proliferation, MV-4-11
Description: (§2) The tumor cells used herein were cultured in a cell culture medium listed in table 2 at 37 °C in an incubator with 5% CO2. Prior to experimentation, all cell lines used were correctly identified by STR profiling, and tested negative for Mycoplasma contamination using a Mycoplasma detection kit through routine screenings.
(§3) The IC50 values of the compounds of the present disclosure (including the compounds in Table 1, and Examples 1-498) were determined using the CellTiter-Meiluncell Luminescent Cell Viability Assay Kit from Dalian Meilun Biotech Co., Ltd. The detailed procedure is as follows: Tumor cells were seeded in 96-well cell culture plates at the densities specified in Table 3. On the following day, the test compounds of the present disclosure were subjected to serial dilution. […] Subsequently, 0.5 μL of the test compound dilution was transferred into the 96-well plate containing the cells, with each well containing 100 μL of cell culture medium. […] Into the 96-well plate, the diluted test compounds and corresponding detection reagents were added, resulting in final test compound concentrations of 500 nM and 10 nM, respectively. The experimental procedure is described below using the diluted 2 μM test compound as an example.
(§4) 0.5 μL of the aforementioned diluted compound of the present disclosure (including the compounds in Table 1, and Examples 1-498) was added to the seeded cells in 100 μL of medium, yielding a final test compound concentration of 10 nM. After the cells were treated with the compounds of the present disclosure for a specified period, the cell viability assay reagent was added to the culture medium according to the kit's instructions to determine cell viability. […] All controls were treated using the same procedure as the compounds of the present disclosure. The growth inhibition curves for the compounds of the present disclosure were plotted using Prism GraphPad software, and the IC50 values were calculated therefrom.

IKZF3 = molecular target: T3, IKZF3 (Homo sapiens, UniProt Q96SW2+Q9UKT9); assay: Western blot degradation of IKZF3 in hPBMCs (24 h); type: cell-based; conditions: compounds at 50 nM and 500 nM
T3 construct: The supernatant was aspirated as the extracted total cell protein; endogenous in cells; host or cells: human peripheral blood mononuclear cells (hPBMCs)
Procedure, shortened: as §1

Jurkat cells = assay: Inhibition of proliferation of T lymphocytic leukemia cells Jurkat (cell viability assay, 96 h); type: cell-based, human; conditions: read-out: inhibitory activity (IC50) against tumor cells proliferation, Jurkat
Description: as §2, §3, §4

CK1α = molecular target: T4, CK1α (Homo sapiens, UniProt P48729+Q96SW2); assay: Western blot degradation of CK1α in hPBMCs (24 h); type: cell-based; conditions: compounds at 50 nM and 500 nM
T4 construct: The supernatant was aspirated as the extracted total cell protein; endogenous in cells; host or cells: human peripheral blood mononuclear cells (hPBMCs)
Procedure, shortened: as §1

WEE1 = molecular target: T5, WEE1 (Homo sapiens, UniProt P30291+Q96SW2); assay: Western blot degradation of WEE1 in hPBMCs (24 h); type: cell-based; conditions: compounds at 50 nM and 500 nM
T5 construct: The supernatant was aspirated as the extracted total cell protein; endogenous in cells; host or cells: human peripheral blood mononuclear cells (hPBMCs)
Procedure, shortened: as §1

IKZF1 = molecular target: T6, IKZF1 (Homo sapiens, UniProt Q13422+Q96SW2); assay: Western blot degradation of IKZF1 in hPBMCs (24 h); type: cell-based; conditions: compounds at 50 nM and 500 nM
T6 construct: The supernatant was aspirated as the extracted total cell protein; endogenous in cells; host or cells: human peripheral blood mononuclear cells (hPBMCs)
Procedure, shortened: as §1

T4 sequence (P48729 whole entry): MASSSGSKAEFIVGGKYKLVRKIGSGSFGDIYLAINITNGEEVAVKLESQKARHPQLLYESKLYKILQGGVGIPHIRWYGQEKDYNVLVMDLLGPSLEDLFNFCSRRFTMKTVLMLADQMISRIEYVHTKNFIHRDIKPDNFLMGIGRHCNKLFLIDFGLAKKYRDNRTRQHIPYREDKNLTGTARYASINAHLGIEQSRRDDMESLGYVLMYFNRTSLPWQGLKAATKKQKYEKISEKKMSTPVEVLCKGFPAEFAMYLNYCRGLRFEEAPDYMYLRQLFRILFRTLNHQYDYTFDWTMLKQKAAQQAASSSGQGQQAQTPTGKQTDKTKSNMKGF
T4 sequence (Q96SW2 whole entry): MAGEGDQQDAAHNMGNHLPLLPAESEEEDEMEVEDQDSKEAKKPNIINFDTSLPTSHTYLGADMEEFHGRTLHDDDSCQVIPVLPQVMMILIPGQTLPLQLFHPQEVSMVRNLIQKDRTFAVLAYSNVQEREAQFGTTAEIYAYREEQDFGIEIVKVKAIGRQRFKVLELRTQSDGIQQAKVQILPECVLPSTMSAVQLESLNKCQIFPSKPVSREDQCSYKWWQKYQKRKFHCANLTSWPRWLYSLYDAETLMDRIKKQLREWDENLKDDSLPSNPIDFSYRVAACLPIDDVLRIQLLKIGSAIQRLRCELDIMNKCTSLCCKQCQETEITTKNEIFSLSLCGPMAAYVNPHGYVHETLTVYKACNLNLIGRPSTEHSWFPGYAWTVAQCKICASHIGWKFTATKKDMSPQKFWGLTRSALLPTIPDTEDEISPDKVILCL
T4 sequence (Q16531 whole entry partner): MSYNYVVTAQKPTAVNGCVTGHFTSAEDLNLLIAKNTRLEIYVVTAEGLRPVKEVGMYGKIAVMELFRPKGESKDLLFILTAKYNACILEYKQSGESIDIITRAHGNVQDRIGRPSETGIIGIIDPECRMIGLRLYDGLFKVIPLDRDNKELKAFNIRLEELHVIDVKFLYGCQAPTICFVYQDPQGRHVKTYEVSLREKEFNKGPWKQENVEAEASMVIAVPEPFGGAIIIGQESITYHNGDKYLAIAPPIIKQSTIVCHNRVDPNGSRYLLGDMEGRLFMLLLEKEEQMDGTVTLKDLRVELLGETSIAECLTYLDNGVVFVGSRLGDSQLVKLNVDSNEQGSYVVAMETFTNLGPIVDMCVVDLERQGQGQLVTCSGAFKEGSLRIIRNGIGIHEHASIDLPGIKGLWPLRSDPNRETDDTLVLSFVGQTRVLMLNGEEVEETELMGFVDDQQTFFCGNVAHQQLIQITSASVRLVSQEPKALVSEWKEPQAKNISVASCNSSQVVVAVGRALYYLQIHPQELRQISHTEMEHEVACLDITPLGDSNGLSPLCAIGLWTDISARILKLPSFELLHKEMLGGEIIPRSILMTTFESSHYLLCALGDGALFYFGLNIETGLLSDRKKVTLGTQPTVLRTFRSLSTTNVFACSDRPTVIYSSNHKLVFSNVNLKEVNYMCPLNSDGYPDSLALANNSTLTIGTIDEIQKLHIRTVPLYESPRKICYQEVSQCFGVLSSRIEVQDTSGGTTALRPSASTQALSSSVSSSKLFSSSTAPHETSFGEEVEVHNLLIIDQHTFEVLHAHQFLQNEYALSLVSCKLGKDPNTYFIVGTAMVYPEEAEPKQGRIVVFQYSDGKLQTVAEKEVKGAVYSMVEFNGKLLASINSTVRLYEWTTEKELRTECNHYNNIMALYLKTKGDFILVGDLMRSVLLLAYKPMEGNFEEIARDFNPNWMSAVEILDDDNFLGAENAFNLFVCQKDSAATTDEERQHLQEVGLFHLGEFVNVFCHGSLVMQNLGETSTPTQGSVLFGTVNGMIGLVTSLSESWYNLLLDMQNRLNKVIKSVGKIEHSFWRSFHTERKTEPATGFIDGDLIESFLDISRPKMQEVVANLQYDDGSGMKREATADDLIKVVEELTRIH
T2 sequence (P15170 whole entry): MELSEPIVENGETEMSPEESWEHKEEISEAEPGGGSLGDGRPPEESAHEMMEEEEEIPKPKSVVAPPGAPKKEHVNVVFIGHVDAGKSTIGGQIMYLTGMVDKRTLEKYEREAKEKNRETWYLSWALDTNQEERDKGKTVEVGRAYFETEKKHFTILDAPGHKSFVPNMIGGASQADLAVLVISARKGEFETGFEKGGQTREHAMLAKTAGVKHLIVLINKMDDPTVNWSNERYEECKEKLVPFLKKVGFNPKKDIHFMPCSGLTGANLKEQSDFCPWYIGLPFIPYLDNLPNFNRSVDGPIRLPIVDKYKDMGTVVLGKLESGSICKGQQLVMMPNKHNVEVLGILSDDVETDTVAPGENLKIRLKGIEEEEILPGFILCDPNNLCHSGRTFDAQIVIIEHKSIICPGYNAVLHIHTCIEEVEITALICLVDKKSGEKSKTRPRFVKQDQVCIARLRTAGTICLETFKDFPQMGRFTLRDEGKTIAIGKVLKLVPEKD
T2 sequence (Q96SW2 whole entry): as the sequence (Q96SW2 whole entry) above
T2 sequence (Q16531 whole entry partner): as the sequence (Q16531 whole entry partner) above
T1 sequence (Q9UKS7 whole entry): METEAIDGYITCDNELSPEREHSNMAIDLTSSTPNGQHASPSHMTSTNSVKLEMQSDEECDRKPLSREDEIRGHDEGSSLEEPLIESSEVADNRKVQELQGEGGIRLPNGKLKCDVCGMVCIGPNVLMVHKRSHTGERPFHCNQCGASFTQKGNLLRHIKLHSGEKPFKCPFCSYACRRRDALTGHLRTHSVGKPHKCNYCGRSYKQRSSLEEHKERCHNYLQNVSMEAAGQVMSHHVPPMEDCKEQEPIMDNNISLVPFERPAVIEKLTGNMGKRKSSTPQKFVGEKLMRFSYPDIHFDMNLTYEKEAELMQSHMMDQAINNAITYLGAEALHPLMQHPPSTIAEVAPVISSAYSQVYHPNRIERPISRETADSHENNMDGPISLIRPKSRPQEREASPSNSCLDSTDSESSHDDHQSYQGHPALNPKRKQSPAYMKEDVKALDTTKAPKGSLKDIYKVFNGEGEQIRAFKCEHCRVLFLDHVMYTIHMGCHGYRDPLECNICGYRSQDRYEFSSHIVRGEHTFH
T1 sequence (Q96SW2 whole entry): as the sequence (Q96SW2 whole entry) above
T1 sequence (Q16531 whole entry partner): as the sequence (Q16531 whole entry partner) above
T5 sequence (P30291 whole entry): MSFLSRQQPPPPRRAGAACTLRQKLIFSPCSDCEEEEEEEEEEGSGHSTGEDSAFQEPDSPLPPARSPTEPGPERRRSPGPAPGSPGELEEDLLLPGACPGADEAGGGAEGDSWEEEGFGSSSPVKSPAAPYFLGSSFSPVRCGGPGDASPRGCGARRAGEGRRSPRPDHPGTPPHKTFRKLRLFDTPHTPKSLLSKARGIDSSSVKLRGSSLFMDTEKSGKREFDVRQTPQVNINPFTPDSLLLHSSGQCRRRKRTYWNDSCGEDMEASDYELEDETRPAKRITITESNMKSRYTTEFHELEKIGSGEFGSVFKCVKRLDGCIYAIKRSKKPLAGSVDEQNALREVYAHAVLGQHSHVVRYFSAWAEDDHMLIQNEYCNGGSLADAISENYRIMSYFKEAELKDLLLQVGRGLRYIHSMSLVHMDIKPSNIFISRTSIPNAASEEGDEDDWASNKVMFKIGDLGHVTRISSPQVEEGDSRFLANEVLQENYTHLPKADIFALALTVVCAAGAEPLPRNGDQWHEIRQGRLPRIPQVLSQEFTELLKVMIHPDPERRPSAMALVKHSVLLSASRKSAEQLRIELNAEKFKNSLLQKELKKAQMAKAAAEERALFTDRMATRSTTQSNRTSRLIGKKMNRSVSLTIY
T5 sequence (Q96SW2 whole entry): as the sequence (Q96SW2 whole entry) above
T5 sequence (Q16531 whole entry partner): as the sequence (Q16531 whole entry partner) above
T3 sequence (Q9UKT9 whole entry): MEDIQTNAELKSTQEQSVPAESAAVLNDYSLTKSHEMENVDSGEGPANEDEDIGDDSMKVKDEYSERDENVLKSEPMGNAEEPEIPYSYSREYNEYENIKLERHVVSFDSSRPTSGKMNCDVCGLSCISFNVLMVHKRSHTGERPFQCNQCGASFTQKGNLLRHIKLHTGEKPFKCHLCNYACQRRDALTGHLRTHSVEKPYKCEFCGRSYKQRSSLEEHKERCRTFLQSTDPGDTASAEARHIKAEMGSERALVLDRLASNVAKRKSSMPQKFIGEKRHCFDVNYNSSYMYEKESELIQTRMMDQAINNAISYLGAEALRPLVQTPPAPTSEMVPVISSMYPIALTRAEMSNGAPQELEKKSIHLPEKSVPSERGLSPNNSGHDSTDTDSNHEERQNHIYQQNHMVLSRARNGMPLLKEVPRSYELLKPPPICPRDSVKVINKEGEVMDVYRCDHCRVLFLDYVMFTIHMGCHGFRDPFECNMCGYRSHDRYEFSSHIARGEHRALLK
T3 sequence (Q96SW2 whole entry): as the sequence (Q96SW2 whole entry) above
T3 sequence (Q16531 whole entry partner): as the sequence (Q16531 whole entry partner) above

SMILES | IKZF2 substrate protein remaining % (IKZF2) | GSPT1 substrate protein remaining % (GSPT1) | IC50 (MV-4-11 cells) | IKZF3 substrate protein remaining % (IKZF3) | IC50 (Jurkat cells) | CK1α substrate protein remaining % (CK1α) | WEE1 substrate protein remaining % (WEE1) | IKZF1 substrate protein remaining % (IKZF1)
Cc1cccc(N2CCN(Cc3ccc4c(c3)CN(N3CCC(=O)NC3=O)C4=O)CC2)c1 [GT-06770, 1-(1-oxo-5-((4-(m-tolyl)piperazin-1-yl)methyl)isoindolin-2-yl)dihydropyrimidine-2,4(1H,3H)-dione] | A (0% ≤ substrate protein remaining % ≤80%) | A (0% ≤ substrate protein remaining % ≤80%) | 500 to 1000 nM | A (0% ≤ substrate protein remaining % ≤80%) | 500 to 1000 nM | A (0% ≤ substrate protein remaining % ≤80%) | A (0% ≤ substrate protein remaining % ≤80%) | A (0% ≤ substrate protein remaining % ≤80%)
O=C1CCN(N2Cc3cc(CN4CCN(c5ccc(Cl)cc5)CC4)ccc3C2=O)C(=O)N1 [GT-06765, 1-(5-((4-(4-chlorophenyl)piperazin-1-yl)methyl)-1-oxoisoindolin-2-yl)dihydropyrimidine-2,4(1H,3H)-dione] | B (80%< substrate protein remaining % ≤100%) | B (80%< substrate protein remaining % ≤100%) | 500 to 1000 nM | B (80%< substrate protein remaining % ≤100%) | – | A (0% ≤ substrate protein remaining % ≤80%) | B (80%< substrate protein remaining % ≤100%) | B (80%< substrate protein remaining % ≤100%)
O=C1CCN(N2Cc3cc(CN4CCN(c5ccccc5Br)CC4)ccc3C2=O)C(=O)N1 [GT-06766, 1-(5-((4-(2-bromophenyl)piperazin-1-yl)methyl)-1-oxoisoindolin-2-yl)dihydropyrimidine-2,4(1H,3H)-dione] | A (0% ≤ substrate protein remaining % ≤80%) | A (0% ≤ substrate protein remaining % ≤80%) | 500 to 1000 nM | A (0% ≤ substrate protein remaining % ≤80%) | – | A (0% ≤ substrate protein remaining % ≤80%) | A (0% ≤ substrate protein remaining % ≤80%) | A (0% ≤ substrate protein remaining % ≤80%)
O=C1CCN(N2Cc3cc(CN4CCN(c5cccc(Br)c5)CC4)ccc3C2=O)C(=O)N1 [GT-06698, 1-(5-((4-(3-bromophenyl)piperazin-1-yl)methyl)-1-oxoisoindolin-2-yl)dihydropyrimidine-2,4(1H,3H)-dione] | B (80%< substrate protein remaining % ≤100%) | A (0% ≤ substrate protein remaining % ≤80%) | 100 to 300 nM | B (80%< substrate protein remaining % ≤100%) | – | B (80%< substrate protein remaining % ≤100%) | B (80%< substrate protein remaining % ≤100%) | B (80%< substrate protein remaining % ≤100%)
O=C1CCN(N2Cc3cc(CN4CCN(c5cc(Cl)ccc5Cl)CC4)ccc3C2=O)C(=O)N1 [GT-06773, 1-(5-((4-(2,5-dichlorophenyl)piperazin-1-yl)methyl)-1-oxoisoindolin-2-yl)dihydropyrimidine-2,4(1H,3H)-dione] | A (0% ≤ substrate protein remaining % ≤80%) | A (0% ≤ substrate protein remaining % ≤80%) | 100 to 300 nM | A (0% ≤ substrate protein remaining % ≤80%) | – | A (0% ≤ substrate protein remaining % ≤80%) | A (0% ≤ substrate protein remaining % ≤80%) | B (80%< substrate protein remaining % ≤100%)
O=C1CCN(N2Cc3cc(CN4CCC(c5cccc(Br)c5)CC4)ccc3C2=O)C(=O)N1 [GT-06885, 1-(5-((4-(3-bromophenyl)piperidin-1-yl)methyl)-1-oxoisoindolin-2-yl)dihydropyrimidine-2,4(1H,3H)-dione] | A (0% ≤ substrate protein remaining % ≤80%) | A (0% ≤ substrate protein remaining % ≤80%) | 100 to 300 nM | B (80%< substrate protein remaining % ≤100%) | – | B (80%< substrate protein remaining % ≤100%) | B (80%< substrate protein remaining % ≤100%) | A (0% ≤ substrate protein remaining % ≤80%)
O=C1CCN(N2Cc3cc(CN4CCC(c5cccc(C(F)(F)F)c5)CC4)ccc3C2=O)C(=O)N1 [GT-06892, 1-(1-oxo-5-((4-(3-(trifluoromethyl)phenyl)piperidin-1-yl)methyl)isoindolin-2-yl)dihydropyrimidine-2,4(1H,3H)-dione] | A (0% ≤ substrate protein remaining % ≤80%) | A (0% ≤ substrate protein remaining % ≤80%) | 500 to 1000 nM | B (80%< substrate protein remaining % ≤100%) | – | B (80%< substrate protein remaining % ≤100%) | B (80%< substrate protein remaining % ≤100%) | A (0% ≤ substrate protein remaining % ≤80%)
O=C1CCN(N2Cc3cc(CN4CCC(c5ccccc5)CC4)ccc3C2=O)C(=O)N1 [GT-06884, 1-(1-oxo-5-((4-phenylpiperidin-1-yl)methyl)isoindolin-2-yl)dihydropyrimidine-2,4(1H,3H)-dione] | B (80%< substrate protein remaining % ≤100%) | A (0% ≤ substrate protein remaining % ≤80%) | 500 to 1000 nM | B (80%< substrate protein remaining % ≤100%) | – | B (80%< substrate protein remaining % ≤100%) | B (80%< substrate protein remaining % ≤100%) | B (80%< substrate protein remaining % ≤100%)
O=C1CCN(N2Cc3cc(CN4CCN(c5ccccc5)CC4)ccc3C2=O)C(=O)N1 [GT-06696, 1-(1-oxo-5-((4-phenylpiperazin-1-yl)methyl)isoindolin-2-yl)dihydropyrimidine-2,4(1H,3H)-dione] | B (80%< substrate protein remaining % ≤100%) | A (0% ≤ substrate protein remaining % ≤80%) | 100 to 300 nM | B (80%< substrate protein remaining % ≤100%) | – | B (80%< substrate protein remaining % ≤100%) | B (80%< substrate protein remaining % ≤100%) | B (80%< substrate protein remaining % ≤100%)
